From ChEMBL document CHEMBL1145724, “Cyclic amine sulfonamides as linkers in the design and synthesis of novel human beta(3) adrenergic receptor agonists” (Bioorg Med Chem Lett, 2003)

Columns and labels:
[1] = biological target: T1, Beta-3 adrenergic receptor (Homo sapiens, UniProt P13945); assay: Intrinsic activity against cloned human beta3-AR was measured as fractions of the maximal response
Target sequence in this assay (P13945 whole entry, looked up): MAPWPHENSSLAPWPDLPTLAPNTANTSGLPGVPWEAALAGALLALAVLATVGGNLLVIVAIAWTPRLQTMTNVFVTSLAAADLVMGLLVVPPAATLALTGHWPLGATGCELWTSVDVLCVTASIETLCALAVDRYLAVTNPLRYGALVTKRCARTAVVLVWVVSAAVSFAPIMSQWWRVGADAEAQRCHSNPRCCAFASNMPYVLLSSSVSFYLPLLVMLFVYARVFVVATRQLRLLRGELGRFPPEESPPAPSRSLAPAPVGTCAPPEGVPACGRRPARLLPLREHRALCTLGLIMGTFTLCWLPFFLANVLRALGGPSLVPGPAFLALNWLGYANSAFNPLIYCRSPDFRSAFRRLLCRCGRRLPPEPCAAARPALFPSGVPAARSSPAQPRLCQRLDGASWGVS

[2] = biological target: T2, Beta-1 adrenergic receptor (Homo sapiens, UniProt P08588); assay: Intrinsic activity against cloned human beta1-AR was measured as fractions of the maximal response
Target sequence in this assay (P08588 whole entry, looked up): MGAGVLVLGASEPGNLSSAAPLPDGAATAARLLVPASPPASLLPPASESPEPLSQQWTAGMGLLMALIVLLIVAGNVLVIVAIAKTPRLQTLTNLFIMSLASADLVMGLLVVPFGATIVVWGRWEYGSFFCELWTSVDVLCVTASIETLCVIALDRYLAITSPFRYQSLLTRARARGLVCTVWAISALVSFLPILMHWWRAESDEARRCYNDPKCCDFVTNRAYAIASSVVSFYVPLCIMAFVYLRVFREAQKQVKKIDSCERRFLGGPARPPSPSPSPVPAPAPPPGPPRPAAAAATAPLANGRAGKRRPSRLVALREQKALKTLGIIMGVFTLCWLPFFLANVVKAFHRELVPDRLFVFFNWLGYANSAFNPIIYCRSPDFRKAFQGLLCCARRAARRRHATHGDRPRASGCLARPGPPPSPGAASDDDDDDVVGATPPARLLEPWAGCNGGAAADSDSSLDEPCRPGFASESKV

[3] = biological target: Beta-2 adrenergic receptor (Homo sapiens, UniProt P07550); assay: Agonistic activity against cloned human […] (beta-2-adrenergic receptor) in CHO cells; format: functional, cell-based
Beta-2 adrenergic receptor, sequence (P07550 whole entry): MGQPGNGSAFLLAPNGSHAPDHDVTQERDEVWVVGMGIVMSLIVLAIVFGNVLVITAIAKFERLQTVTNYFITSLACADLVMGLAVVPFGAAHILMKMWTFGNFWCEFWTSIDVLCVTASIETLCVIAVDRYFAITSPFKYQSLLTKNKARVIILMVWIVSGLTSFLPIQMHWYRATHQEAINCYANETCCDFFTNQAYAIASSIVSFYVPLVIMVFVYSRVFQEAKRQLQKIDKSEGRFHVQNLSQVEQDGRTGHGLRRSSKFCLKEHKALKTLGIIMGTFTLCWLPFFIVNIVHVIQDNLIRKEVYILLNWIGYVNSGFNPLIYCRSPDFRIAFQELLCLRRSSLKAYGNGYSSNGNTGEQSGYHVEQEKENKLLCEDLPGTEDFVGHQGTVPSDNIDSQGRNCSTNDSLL

[4] = biological target: T2, Beta-1 adrenergic receptor; assay: Agonistic activity against cloned human beta1-AR (beta-1-adrenergic receptor) in CHO cells; format: functional, cell-based
Target sequence in this assay (P08588 whole entry): as the sequence (P08588 whole entry, looked up) above

[5] = biological target: T1, Beta-3 adrenergic receptor; assay: Agonistic activity against cloned human beta3-AR (beta-3-adrenergic receptor) in CHO cells; format: functional, cell-based
Target sequence in this assay (P13945 whole entry): as the sequence (P13945 whole entry, looked up) above

Structure (SMILES) | Intrinsic activity [1] | Intrinsic activity [2] | EC50 [3] [nM] | EC50 [4] [nM] | EC50 [5] [nM]
CCCCCCNC(=O)Nc1ccc(S(=O)(=O)N2CCC(NC[C@H](O)COc3cccc4[nH]c(O)nc34)CC2)cc1 | 0.74 | – | – | – | –
COc1ccc(S(=O)(=O)N2CCC(NC[C@H](O)COc3cccc4[nH]c(O)nc34)CC2)cc1OC | 0.87 | 0.33 | – | – | –
CCCCOc1ccc(S(=O)(=O)N2CCC(NC[C@H](O)COc3cccc4[nH]c5ccccc5c34)CC2)cc1 | 0.74 | 0.04 | > 100000 | > 100000 | –
CS(=O)(=O)Nc1cc([C@@H](O)CNC2CCN(S(=O)(=O)c3ccc4oc5ccccc5c4c3)CC2)ccc1O | 0.88 | – | – | – | 120
O=S(=O)(c1ccc2oc3ccccc3c2c1)N1CCC(NC[C@H](O)COc2cccc3[nH]c(O)nc23)CC1 | 0.64 | – | – | – | –
COc1ccc(S(=O)(=O)N2CCC(NC[C@H](O)COc3cccc4[nH]c5ccccc5c34)CC2)cc1 | 0.88 | 0.11 | > 100000 | 100000 | –
CCCCOc1ccc(S(=O)(=O)N2CCC(NC[C@H](O)COc3cccc4[nH]c5ccccc5c34)C2)cc1 (stereo not given in full) | – | – | – | – | > 2000
COc1ccc(S(=O)(=O)N2CCC(NC[C@H](O)COc3cccc4[nH]c(=O)[nH]c34)CC2)cc1 | – | – | > 100000 | > 100000 | 120
O=c1[nH]c2cccc(OC[C@@H](O)CNC3CCN(S(=O)(=O)c4cccc5nsnc45)CC3)c2[nH]1 | – | – | – | – | 850
CCCCOc1ccc(S(=O)(=O)N2CC(NC[C@H](O)c3ccc(O)c(NS(C)(=O)=O)c3)C2)cc1 | 0.78 | – | – | – | 1100
COc1ccc(S(=O)(=O)N2CCC(NC[C@H](O)COc3cccc4[nH]c5ccccc5c34)CC2)cc1OC | 1.2 | 0.14 | > 100000 | > 100000 | –
CCCCOc1ccc(S(=O)(=O)N2CC(NC[C@H](O)COc3cccc4[nH]c5ccccc5c34)C2)cc1 | – | – | – | – | > 2000
CCCCOc1ccc(S(=O)(=O)N2CC(NC[C@H](O)c3ccc(O)cc3)C2)cc1 | 0.82 | 0.49 | 920 | 1600 | 30
O=S(=O)(c1cccc2nsnc12)N1CCC(NC[C@H](O)COc2cccc3[nH]c(O)nc23)CC1 | 0.75 | – | – | – | –
COc1ccc(S(=O)(=O)N2CCC(NC[C@H](O)COc3ccc(O)cc3)CC2)cc1 | 0.74 | 0.46 | > 100000 | 10300 | 55
CCCCOc1ccc(S(=O)(=O)N2CCC(NC[C@H](O)c3ccc(O)c(NS(C)(=O)=O)c3)C2)cc1 (stereo not given in full) | 0.79 | – | – | – | 360
COc1ccc(S(=O)(=O)N2CCC(NC[C@H](O)COc3cccc4[nH]c(O)nc34)CC2)cc1 | 0.72 | 0.32 | – | – | –
CCCCCCNC(=O)Nc1ccc(S(=O)(=O)N2CCC(NC[C@H](O)COc3cccc4[nH]c(=O)[nH]c34)CC2)cc1 | – | – | – | – | 36
COc1ccc(S(=O)(=O)N2CCC(NC[C@H](O)COc3cccc4[nH]c(=O)[nH]c34)CC2)cc1OC | – | – | > 100000 | > 100000 | 90
CCCCCCNC(=O)Nc1ccc(S(=O)(=O)N2CCC(NC[C@H](O)COc3ccc(O)cc3)CC2)cc1 | – | – | – | – | > 2000
CCCCCCNC(=O)Nc1ccc(S(=O)(=O)N2CCC(NC[C@H](O)c3ccc(O)c(NS(C)(=O)=O)c3)CC2)cc1 | 0.82 | 0.66 | 920 | 12 | 5
CCC(C)(C)c1ccc(S(=O)(=O)N2CCC(NC[C@H](O)COc3cccc4[nH]c5ccccc5c34)CC2)cc1 | 1 | – | – | – | 920
CCCCOc1ccc(S(=O)(=O)N2CCC(NC[C@H](O)COc3ccc(O)cc3)CC2)cc1 | – | – | – | – | > 2000
O=c1[nH]c2cccc(OC[C@@H](O)CNC3CCN(S(=O)(=O)c4ccc5oc6ccccc6c5c4)CC3)c2[nH]1 | – | – | – | – | 70
